Measurements taken from patent publication US20250179047A1, “5-[7-(3,4-DIHYDRO-1H-ISOQUINOLINE-2-CARBONYL)-1,2,3,4 TETRAHYDROISOQUINOLIN-6-YL]-1H-PYRROLE-3-CARBOXAMIDE DERIVATIVES, PHARMACEUTICAL COMPOSITIONS CONTAINING THEM AND THEIR USES AS PRO-APOPTOTIC AGENTS” (LES LABORATOIRES SERVIER, priority 2022, published 2025).
Read-outs that look alike come from different tables or passages of the source.

Assays:
BCL2 G101V [1] = experiment: TR-FRET competitive binding assay, BCL2 G101V; set-up: species or system human; details: for TR_FRET EKI G101V/WT selectivty ratio: ratio Ki BCL2 G101V / Ki BCL2 WT; for TR_FRET EKI G101V/WT selectivty: ratio of Ki BCL2 G101V to BCL2 WT
Method in brief: (§1)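 Terbium-labelled N-terminal Halo-fusion BCL2 or BCLXL (E. coli), 0.5 nM, competed against fluorescein-labelled PUMA peptide (2 or 20 nM) for 2 h at 23° C in 50 mM Hepes pH 7.5, 150 mM NaCl, 5% DMSO. TR-FRET 520/495 nm ratio gave IC50 by four-parameter fit; Ki derived from IC50.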

BCL2 G101V [2] = molecular target: BCL2 G101V (Homo sapiens, UniProt P10415, G101V); experiment: TR-FRET competitive binding assay, BCL2 G101V; details: BCL2 G101V; Ki determined from IC50; read-out: TR_FRET EKI_Bcl2 G101V
Method in brief: as §1

KMS-12-PE Bcl-2 WT = experiment: In vitro cytotoxicity CellTiter-Glo 48 h, KMS-12-PE Bcl-2 WT; type: cell-based; details: Homo sapiens, KMS-12-PE, C50 = concentration needed to reach 50% of the cellular viability
Method in brief: (§2)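 KMS-12-PE myeloma cells were lentivirally transduced with wild-type or G101V-mutant Bcl-2 and sorted by TagRFP. They were exposed to compounds as 11-point dose responses for 48 h at 37 °C, 5% CO2. Viability was read by CellTiter-Glo ATP luminescence, and C50 was the concentration giving 50% viability.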

BCLXL WT = BCLXL WT (Homo sapiens (Human), UniProt Q07817); experiment: TR-FRET competitive binding assay, BCLXL WT; details: for Ki: BCLXL WT, Ki determined from IC50, read-out: TR_FRET EKI BclxL; for TR_FRET EKI BCLxL/WT selectivty ratio: ratio Ki BCLxL / Ki BCL2 WT; for TR_FRET EKI BCLxL/WT selectivty: ratio of Ki BCLxL to BCL2 WT
Method in brief: as §1

BCL2 D103Y = BCL2 D103Y (Homo sapiens, UniProt P10415, D103Y); experiment: TR-FRET competitive binding assay, BCL2 D103Y; details: Ki determined from IC50, read-out: TR_FRET EKI_Bcl2 D103Y
Method in brief: as §1

BCL2 WT = BCL2 WT (Homo sapiens (Human), UniProt P10415); experiment: TR-FRET competitive binding assay, BCL2 WT
Method in brief: as §1

KMS-12-PE Bcl-2 G101V = experiment: In vitro cytotoxicity CellTiter-Glo 48 h, KMS-12-PE Bcl-2 G101V; type: cell-based; details: for Ratio (G101V/WT): C50 KMS-12-PE Bcl-2 G101V over C50 KMS-12-PE Bcl-2 WT; for IC50: Homo sapiens, KMS-12-PE, 48 h, CellTiter-Glo, C50 = concentration needed to reach 50% of the cellular viability
Method in brief: as §2

[3] = Ki determined from IC50, read-out: TR_FRET EKI_Bcl2 WT
[4] = Ki determined from IC50, read-out: TR_FRET EKI_Bcl2

Sequence of BCLXL WT (Q07817 other isoform, or with tags, fused parts or gaps): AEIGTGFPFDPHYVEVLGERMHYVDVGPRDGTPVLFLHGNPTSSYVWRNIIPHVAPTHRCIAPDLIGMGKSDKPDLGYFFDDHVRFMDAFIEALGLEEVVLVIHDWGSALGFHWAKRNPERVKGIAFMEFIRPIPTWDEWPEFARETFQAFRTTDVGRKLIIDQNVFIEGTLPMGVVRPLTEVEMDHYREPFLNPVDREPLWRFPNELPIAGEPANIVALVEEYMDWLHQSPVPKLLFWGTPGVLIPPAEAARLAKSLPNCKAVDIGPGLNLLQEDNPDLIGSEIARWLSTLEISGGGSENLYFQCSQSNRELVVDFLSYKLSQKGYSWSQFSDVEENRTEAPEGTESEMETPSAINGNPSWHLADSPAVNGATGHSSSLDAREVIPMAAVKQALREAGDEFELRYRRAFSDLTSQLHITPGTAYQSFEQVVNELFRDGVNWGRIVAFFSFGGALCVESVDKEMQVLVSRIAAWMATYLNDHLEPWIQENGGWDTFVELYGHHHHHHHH

| Structure (SMILES) | TR_FRET EKI G101V/WT selectivty ratio (BCL2 G101V [1]) | Ki (BCL2 G101V [2]) [nM] | IC50 (KMS-12-PE Bcl-2 WT) [µM] | Ki (BCLXL WT) [nM] | TR_FRET EKI BCLxL/WT selectivty ratio (BCLXL WT) | Ki (BCL2 D103Y) [nM] | Ki (BCL2 WT; [3]) [nM] | Ratio (G101V/WT) (KMS-12-PE Bcl-2 G101V) | IC50 (KMS-12-PE Bcl-2 G101V) [µM] | TR_FRET EKI G101V/WT selectivty (BCL2 G101V [1]) | TR_FRET EKI BCLxL/WT selectivty (BCLXL WT) | Ki (BCL2 WT; [4]) [nM] |
| --- | --- | --- | --- | --- | --- | --- | --- | --- | --- | --- | --- | --- |
| Cc1c(N(C(=O)c2cc(-c3cc4c(cc3C(=O)N3Cc5ccccc5C[C@H]3CN3CCCCC3)CN(C(=O)Cc3ccc(OCCC5CCOCC5)nc3)CC4)n(C)c2C)c2ccc(O)cc2)cc(C#N)n1C [Example 118, N-(5-cyano-1,2-dimethyl-1H-pyrrol-3-yl)-N-(4-hydroxyphenyl)-1,2-dimethyl-5-[2-(2-{6-[2-(oxan-4-yl)ethoxy]pyridin-3-yl}acetyl)-7-[(3S)-3-[(piperidin-1-yl)methyl]-1,2,3,4-tetrahydroisoquinoline-2-carbonyl]-1,2,3,4-tetrahydroisoquinolin-6-yl]-1H-pyrrole-3-carboxamide] | 5.1 | 0.5 | 0.0107 | 5.2 | 52.5 | 0.14 | 0.1 | 7.61 | 0.0814 |  |  |  |
| Cc1c(N(C(=O)c2cc(-c3cc4c(cc3C(=O)N3Cc5ccccc5C[C@H]3CN3CCCCC3)CN(C(=O)Cc3ccc(OCCN(C)CC5COC5)cc3F)CC4)n(C)c2C)c2ccc(O)cc2)cc(C#N)n1C [Example 103, N-(5-cyano-1,2-dimethyl-1H-pyrrol-3-yl)-5-(2-{2-[2-fluoro-4-(2-{methyl[(oxetan-3-yl)methyl]amino}ethoxy)phenyl]acetyl}-7-[(3S)-3-[(piperidin-1-yl)methyl]-1,2,3,4-tetrahydroisoquinoline-2-carbonyl]-1,2,3,4-tetrahydroisoquinolin-6-yl)-N-(4-hydroxyphenyl)-1,2-dimethyl-1H-pyrrole-3-carboxamide] | 6.5 | 0.2 | 0.006 | 1.1 | 35.5 | 0.09 | 0.03 | 6.66 | 0.0399 |  |  |  |
| Cc1c(N(C(=O)c2cc(-c3cc4c(cc3C(=O)N3Cc5ccccc5C[C@H]3CN3CCCCC3)CN(C(=O)Cc3ccc(OCCN5CCOCC5)cc3F)CC4)n(C)c2C)c2ccccc2)cc(C#N)n1C [Example 92, N-(5-cyano-1,2-dimethyl-pyrrol-3-yl)-5-[2-[2-[2-fluoro-4-(2-morpholinoethoxy)phenyl]acetyl]-7-[(3S)-3-(1-piperidylmethyl)-3,4-dihydro-1H-isoquinoline-2-carbonyl]-3,4-dihydro-1H-isoquinolin-6-yl]-1,2-dimethyl-N-phenyl-pyrrole-3-carboxamide] | 30.7 | 0.9 | 0.0085 | 8.5 | 303.6 | 0.11 | 0.03 | 11.7 | 0.0974 |  |  |  |
| Cc1c(N(C(=O)c2cc(-c3cc4c(cc3C(=O)N3Cc5ccccc5C[C@H]3C)CN(C(=O)Cc3ccc(OCCNCCF)cc3)CC4)n(C)c2C)c2ccc(O)cc2)cc(C#N)n1C [Example 235] |  | 0.13 | 0.0208 | 0.89 |  | 0.11 |  | 4.7 | 0.0968 | 4.2 | 28.7 | 0.031 |
| Cc1c(N(C(=O)c2cc(-c3cc4c(cc3C(=O)N3Cc5ccccc5C[C@H]3CN3CC[C@@H](F)C3)CN(C(=O)Cc3ccc(OCCN5CCOCC5)cc3F)CC4)n(C)c2C)c2ccc(O)cc2)cc(C#N)n1C [Example 80, N-(5-cyano-1,2-dimethylpyrrol-3-yl)-5-[2-(2-{2-fluoro-4-[2-(morpholin-4-yl)ethoxy]phenyl}acetyl)-7-{[(3S)-3-{[(3R)-3-fluoropyrrolidin-1-yl]methyl}-3,4-dihydro-1H-isoquinolin-2-yl]carbonyl}-3,4-dihydro-1H-isoquinolin-6-yl]-N-(4-hydroxyphenyl)-1,2-dimethylpyrrole-3-carboxamide] | 4.9 | 0.3 | 0.0094 | 1.2 | 21.1 | 0.14 | 0.06 | 5.66 | 0.0534 |  |  |  |
| Cc1c(N(C(=O)c2cc(-c3cc4c(cc3C(=O)N3Cc5ccccc5C[C@H]3C)CN(C(=O)Cc3ccc(F)cc3F)CC4)n(C)c2C)c2ccc(O)cc2)cc(C#N)n1C [Example 11, N-(5-cyano-1,2-dimethyl-1H-pyrrol-3-yl)-5-{2-[2-(2,4-difluorophenyl)acetyl]-7-[(3R)-3-methyl-1,2,3,4-tetrahydroisoquinoline-2-carbonyl]-1,2,3,4-tetrahydroisoquinolin-6-yl}-N-(4-hydroxyphenyl)-1,2-dimethyl-1H-pyrrole-3-carboxamide] | 3.8 | 1.3 | 0.0035 | 4.8 | 14.1 | 0.55 | 0.34 | 7.05 | 0.0249 |  |  |  |
| Cc1c(N(C(=O)c2cc(-c3cc4c(cc3C(=O)N3Cc5ccccc5C[C@H]3CN)CN(C(=O)Cc3ccc(OCCN5CCOCC5)cc3F)CC4)n(C)c2C)c2ccc(O)cc2)cc(C#N)n1C [Example 230] |  | 0.067 | 0.351 | 0.9 |  | 0.066 |  | 2.7 | 0.964 | 4.8 | 64.3 | 0.014 |
| Cc1c(N(C(=O)c2cc(-c3cc4c(cc3C(=O)N3Cc5ccccc5C[C@H]3C)CN(Cc3cc5ccccc5cn3)CC4)n(C)c2C)c2ccc(O)cc2)cc(C#N)n1C [Example 58, N-(5-cyano-1,2-dimethylpyrrol-3-yl)-N-(4-hydroxyphenyl)-5-[2-(isoquinolin-3-ylmethyl)-7-{[(3R)-3-methyl-3,4-dihydro-1H-isoquinolin-2-yl]carbonyl}-3,4-dihydro-1H-isoquinolin-6-yl]-1,2-dimethylpyrrole-3-carboxamide] | 8.1 | 1.7 | 0.005 | 2.3 | 11.0 | 0.51 | 0.21 | 7.95 | 0.0396 |  |  |  |
| Cc1c(C(=O)N(c2ccc(O)cc2)c2cnn(C)c2)cc(-c2cc3c(cc2C(=O)N2Cc4ccccc4C[C@H]2C)CN(C(=O)Cc2ccc(OCCC4CCOCC4)cc2)CC3)n1C [Example 85, N-(4-hydroxyphenyl)-1,2-dimethyl-5-(7-{[(3R)-3-methyl-3,4-dihydro-1H-isoquinolin-2-yl]carbonyl}-2-(2-{4-[2-(oxan-4-yl)ethoxy]phenyl}acetyl)-3,4-dihydro-1H-isoquinolin-6-yl)-N-(1-methylpyrazol-4-yl)pyrrole-3-carboxamide] | 3.3 | 1.1 | 0.0061 | 9.8 | 30.6 | 0.39 | 0.32 | 8.42 | 0.051 |  |  |  |
